According to US10125126B2, “N-cycloalkyl-N-[(heterocyclylphenyl)methylene]-(thio)carboxamide derivatives” (BAYER CROPSCIENCE AG, priority 2012, dated 2018):

Test: log P by HPLC on a reversed-phase column (C 18), EEC Directive 79/831 Annex V.A8
Format: physicochemical
Conditions: 0.1% aqueous formic acid and acetonitrile; for chromatographic logP: reversed-phase HPLC column (C 18), read-out: logP
Method: In table 1, the log P values were determined in accordance with EEC Directive 79/831 Annex V.A8 by HPLC (High Performance Liquid Chromatography) on a reversed-phase column (C 18), using the method described below: Temperature: 40° C.; Mobile phases: 0.1% aqueous formic acid and acetonitrile; linear gradient from 10% acetonitrile to 90% acetonitrile. Calibration was carried out using unbranched alkan-2-ones (comprising 3 to 16 carbon atoms) with known log P values (determination of the log P values by the retention times using linear interpolation between two successive alkanones). lambda-max-values were determined using UV-spectra from 200 nm to 400 nm and the peak values of the chromatographic signals.

[1] = HPLC on reversed-phase column (C 18), 40° C., linear gradient 10% to 90% acetonitrile

Structure (SMILES)	logP [1]	further results
Cc1ccc(-c2cnn(C)c2)c(CN(C(=O)c2cn(C)nc2C(F)F)[C@@H]2C[C@H]2C)c1 (relative stereo) [I.62]	2.66	
Cc1ccc(-c2cnn(C)c2)c(CN(C(=O)c2c(C(F)F)nn(C)c2F)[C@@H]2C[C@H]2C)c1 (relative stereo) [I.63]	2.82	
Cc1ccc(-c2cnn(C)c2)c(CN(C(=O)c2c(C(F)F)nn(C)c2Cl)[C@@H]2C[C@H]2C)c1 (relative stereo) [I.64]	2.86	
CC(C)c1ccc(Cl)cc1C=NO [1-(5-chloro-2-isopropylphenyl)-N-hydroxymethanimine]		logP (HPLC, C 18, 40° C.): 3.17; chromatographic logP (HPLC, C 18, 40° C.): 2.9
CC(C)c1ccc(Cl)cc1CN [1-(5-chloro-2-isopropylphenyl)methanamine]		chromatographic logP (HPLC, C 18, 40° C.): 1.2
Cn1nc(C(F)F)c(C(=O)N(Cc2ccccc2C2COC2)C2CC2)c1Cl [I.2]	1.56	
Cn1nc(C(F)F)c(C(=O)N(Cc2c(C3(C)CO3)ccc(Cl)c2Cl)C2CC2)c1F (stereo not drawn) [I.9]	3.55	
Cn1nc(C(F)F)c(C(=O)N(Cc2c(C3(C)CO3)ccc(Cl)c2F)C2CC2)c1Cl (stereo not drawn) [I.10]	3.37	
Cn1nc(C(F)F)c(C(=O)N(Cc2c(C3(C)CO3)ccc(Cl)c2Cl)C2CC2)c1Cl (stereo not drawn) [I.11]	3.67	
Cc1ccc(C2(C)CO2)c(CN(C(=O)c2c(C(F)F)nn(C)c2F)C2CC2)c1F (stereo not drawn) [I.12]	3.17	
Cn1nc(C(F)F)c(C(=O)N(Cc2c(C3(C)CO3)ccc(Cl)c2F)C2CC2)c1F (stereo not drawn) [I.13]	3.29	
Cn1nc(C(F)F)c(C(=O)N(Cc2cc(C34CCCC3O4)ccc2Cl)C2CC2)c1F (stereo not drawn) [I.17]	3.59	
Cn1nc(C(F)F)c(C(=O)N(Cc2cc(Cl)ccc2C23CCCC2O3)C2CC2)c1F (stereo not drawn) [I.18]	3.60	
Cn1nc(C(F)F)c(C(=O)N(Cc2ccccc2C23CCCC2O3)C2CC2)c1F (stereo not drawn) [I.19]	3.12	
Cn1nc(C(F)F)c(C(=O)N(Cc2ccccc2C2(C)OCCO2)C2CC2)c1F [I.20]	2.94	
Cc1ccc(CN(C(=O)c2c(C(F)F)nn(C)c2F)C2CC2)c(C2(C)OCCO2)c1 [I.21]	3.25	
Cn1nc(C(F)F)c(C(=O)N(Cc2cc(C34CCCCC3O4)ccc2Cl)C2CC2)c1F (stereo not drawn) [I.22]	3.99	
Cn1nc(C(F)F)c(C(=O)N(Cc2cc(Cl)ccc2C23CCCCC2O3)C2CC2)c1F (stereo not drawn) [I.23]	3.99	
Cn1nc(C(F)F)c(C(=O)N(Cc2ccccc2C23CCCCC2O3)C2CC2)c1F (stereo not drawn) [I.24]	3.48	
Cn1nc(C(F)F)c(C(=O)N(Cc2cc(Cl)ccc2C23CCCCCC2O3)C2CC2)c1F (stereo not drawn) [I.25]	4.44	
Cn1nc(C(F)F)c(C(=O)N(Cc2ccccc2C23CCCCCC2O3)C2CC2)c1F (stereo not drawn) [I.26]	3.94	
Cn1nc(C(F)F)c(C(=O)N(Cc2ccccc2-c2ccco2)C2CC2)c1Cl [I.30]	3.46	
O=C(c1ccsc1I)N(Cc1ccccc1-c1ccco1)C1CC1 [I.33]	4.01	
Cc1ccc(-c2ccoc2)c(CN(C(=O)c2cn(C)nc2C(F)F)C2CC2)c1 [I.38]	3.19	
O=C(c1ccsc1I)N(Cc1cc(-c2ccco2)ccc1Cl)C1CC1 [I.41]	4.61	
Cn1cc(C(=O)N(Cc2ccccc2-c2ccco2)C2CC2)c(C(F)F)c1 [I.42]	3.44	

Structure (SMILES)	logP [1]	further results
Cc1nc(C(F)F)c(C(=O)N(Cc2cc(-c3ccco3)ccc2Cl)C2CC2)s1 [I.46]	3.99	
Cc1ccc(-c2ccn(C)c2)c(CN(C(=O)c2c(C(F)F)nn(C)c2F)C2CC2)c1 [I.51]	3.55	
Cc1ccc(-c2ccn(C)c2)c(CN(C(=O)c2cn(C)nc2C(F)F)C2CC2)c1 [I.52]	3.19	
Cc1ccc(-c2ccn(C)c2)c(CN(C(=O)c2c(C(F)F)nn(C)c2Cl)C2CC2)c1 [I.53]	3.69	
CC(C)c1ccc(-c2cnn(C)c2)cc1CN(C(=O)c1c(C(F)F)nn(C)c1F)C1CC1 [I.65]	3.13	
Cn1nc(C(F)F)c(C(=S)N(Cc2ccccc2-c2ccsc2)C2CC2)c1Cl [I.80]	4.39	
Cn1nc(C(F)F)c(C(=S)N(Cc2ccccc2-c2cccs2)C2CC2)c1Cl [I.81]	4.49	
Cn1nc(C(F)F)c(C(=O)N(Cc2cc(-c3cccs3)ccc2Cl)C2CC2)c1Cl [I.85]	4.29	
O=C(c1ccsc1I)N(Cc1cc(-c2ccsc2)ccc1Cl)C1CC1 [I.89]	4.78	
Cn1cc(C(=O)N(Cc2cc(-c3cccs3)ccc2Cl)C2CC2)c(C(F)F)c1 [I.90]	4.16	
O=C(c1ccsc1I)N(Cc1cc(-c2cccs2)ccc1Cl)C1CC1 [I.91]	4.91	
Cn1cc(C(=O)N(Cc2cc(-c3ccsc3)ccc2Cl)C2CC2)c(C(F)F)c1 [I.92]	4.06	
Cn1nc(C(F)F)c(C(=O)N(Cc2cc(-c3ccsc3)ccc2Cl)C2CC2)c1Cl [I.94]	4.16	
Cc1nc(C(F)F)c(C(=O)N(Cc2cc(-c3ccsc3)ccc2Cl)C2CC2)s1 [I.96]	4.14	
Cc1nc(C(F)F)c(C(=O)N(Cc2cc(-c3cccs3)ccc2Cl)C2CC2)s1 [I.97]	4.26	
Cc1cc(C(=O)N(Cc2cc(-c3ccsc3)ccc2Cl)C2CC2)c(C)o1 [I.98]	4.59	
Cc1cc(C(=O)N(Cc2cc(-c3cccs3)ccc2Cl)C2CC2)c(C)o1 [I.99]	4.72	
Cc1ccc(-c2cscc2C)c(CN(C(=O)c2c(C(F)F)nn(C)c2Cl)C2CC2)c1 [I.107]	4.41	
Cc1ccc(-c2cscc2C)c(CN(C(=O)c2cn(C)nc2C(F)F)C2CC2)c1 [I.109]	3.83	
Cc1cscc1-c1ccc(C(C)C)c(CN(C(=O)c2c(C(F)F)nn(C)c2F)C2CC2)c1 [I.110]	4.72	
Cc1ccc(-c2c(C)nn(C)c2C)c(CN(C(=O)c2c(C(F)F)nn(C)c2F)C2CC2)c1 [I.115]	2.71	
Cc1ccc(-c2c(C)nn(C)c2C)c(CN(C(=O)c2cn(C)nc2C(F)F)C2CC2)c1 [I.116]	2.45	
Cc1ccc(-c2c(C)nn(C)c2C)c(CN(C(=O)c2c(C(F)F)nn(C)c2Cl)C2CC2)c1 [I.117]	2.80	
Cc1nn(C)c(C)c1-c1ccc(C(C)C)c(CN(C(=O)c2c(C(F)F)nn(C)c2F)C2CC2)c1 [I.118]	3.23	
COc1ccsc1-c1ccc(C)cc1CN(C(=O)c1cn(C)nc1C(F)F)C1CC1 [I.124]	3.46	
COc1ccsc1-c1ccc(C)cc1CN(C(=O)c1c(C(F)F)nn(C)c1Cl)C1CC1 [I.126]	3.99	

Structure (SMILES)	logP [1]	further results
COc1ccsc1-c1ccc(C)cc1CN(C(=O)c1c(C(F)F)nn(C)c1F)C1CC1C (stereo not drawn) [I.127]	4.21	
COc1ccsc1-c1ccc(C)cc1CN(C(=O)c1c(C(F)F)nn(C)c1Cl)C1CC1C (stereo not drawn) [I.128]	4.41	
Cc1ccc(-c2coc3ccccc23)c(CN(C(=O)c2c(C(F)F)nn(C)c2Cl)C2CC2)c1 [I.133]	4.49	
Cc1ccc(-c2coc3ccccc23)c(CN(C(=O)c2cn(C)nc2C(F)F)C2CC2)c1 [I.135]	3.89	
Cn1nc(C(F)F)c(C(=S)N(Cc2ccccc2-c2ccc(Cl)s2)C2CC2)c1Cl [I.142]	5.19	
O=C(c1ccsc1I)N(Cc1cc(Cl)ccc1-c1ccc(Cl)s1)C1CC1 [I.147]	5.68	
Cc1ccc(-c2ccsc2Cl)c(CN(C(=O)c2c(C(F)F)nn(C)c2Cl)C2CC2)c1 [I.148]	4.44	
Cc1ccc(-c2ccsc2Cl)c(CN(C(=O)c2cn(C)nc2C(F)F)C2CC2)c1 [I.149]	3.85	
Cc1nc(C(F)F)c(C(=O)N(Cc2cc(-c3ccc(Cl)s3)ccc2Cl)C2CC2)s1 [I.151]	5.00	
Cc1cc(C(=O)N(Cc2cc(-c3ccc(Cl)s3)ccc2Cl)C2CC2)c(C)o1 [I.152]	5.54	
CC(C)c1ccc(-c2cn(C)c3ccccc23)cc1CN(C(=O)c1c(C(F)F)nn(C)c1F)C1CC1 [I.153]	4.74	
Cc1ccc(-c2csc3ccccc23)c(CN(C(=O)c2cn(C)nc2C(F)F)C2CC2)c1 [I.161]	4.15	
Cc1ccc(-c2csc3ccccc23)c(CN(C(=O)c2c(C(F)F)nn(C)c2Cl)C2CC2)c1 [I.162]	4.83	
Cc1ccc(-c2csc3ccccc23)c(CN(C(=O)c2c(C(F)F)nn(C)c2F)C2CC2C)c1 (stereo not drawn) [I.163]	4.98	
Cc1ccc(-c2csc3ccccc23)c(CN(C(=O)c2c(C(F)F)nn(C)c2Cl)C2CC2C)c1 (stereo not drawn) [I.164]	5.19	
Cc1ccc(-c2csc3ccccc23)c(CN(C(=O)c2cn(C)nc2C(F)F)C2CC2C)c1 (stereo not drawn) [I.165]	4.46	
Cc1ccc(-c2csc3ccccc23)c(CN(C(=O)c2c(C(F)F)nn(C)c2F)C2CC2C)c1 (stereo not drawn) [I.166]	4.92	
Cc1ccc(-c2csc3ccccc23)c(CN(C(=O)c2c(C(F)F)nn(C)c2Cl)C2CC2C)c1 (stereo not drawn) [I.167]	5.05	
Cn1nc(C(F)F)c(C(=O)N(Cc2ccccc2OC2CCOCC2)C2CC2)c1F [I.169]	2.80	
CC(c1ccccc1Cc1ccc(Cl)cn1)N(C(=O)c1c(C(F)F)nn(C)c1F)C1CC1 (stereo not drawn) [I.171]	3.68	
Clc1ccc(-c2ccco2)c(CNC2CC2)c1 [IIa.1, N-[5-chloro-2-(2-furyl)benzyl]cyclopropanamine]		chromatographic logP (HPLC, C 18, 40° C.): 0.99
Clc1ccc(-c2cccs2)c(CNC2CC2)c1 [IIa.2, N-[5-chloro-2-(2-thienyl)benzyl]cyclopropanamine]		chromatographic logP (HPLC, C 18, 40° C.): 1.1
c1ccc(-c2ccsc2)c(CNC2CC2)c1 [IIa.3, N-[2-(3-thienyl)benzyl]cyclopropanamine]		chromatographic logP (HPLC, C 18, 40° C.): 1.34
CC(NC1CC1)c1ccccc1-c1ccsc1 (stereo not drawn) [IIa.4, N-{1-[2-(3-thienyl)phenyl]ethyl}cyclopropanamine]		chromatographic logP (HPLC, C 18, 40° C.): 1.42
Clc1ccc(-c2ccsc2)c(CNC2CC2)c1 [IIa.5, N-[5-chloro-2-(3-thienyl)benzyl]cyclopropanamine]		chromatographic logP (HPLC, C 18, 40° C.): 1.12
